Target: human orexin-2 receptor (Homo sapiens (Human), UniProt O43614)
Assay: Human orexin 2 receptor radioligand binding ([3H]-EMPA competition)
Settings: HEK293 cells stably expressing human orexin-2 receptor; [3H]-EMPA 5 nM final; apparent Ki=IC50/(1+C/Kd), Kd=2 nM; read-out: OR 2 Ki

human orexin-2 receptor, sequence (O43614 whole entry): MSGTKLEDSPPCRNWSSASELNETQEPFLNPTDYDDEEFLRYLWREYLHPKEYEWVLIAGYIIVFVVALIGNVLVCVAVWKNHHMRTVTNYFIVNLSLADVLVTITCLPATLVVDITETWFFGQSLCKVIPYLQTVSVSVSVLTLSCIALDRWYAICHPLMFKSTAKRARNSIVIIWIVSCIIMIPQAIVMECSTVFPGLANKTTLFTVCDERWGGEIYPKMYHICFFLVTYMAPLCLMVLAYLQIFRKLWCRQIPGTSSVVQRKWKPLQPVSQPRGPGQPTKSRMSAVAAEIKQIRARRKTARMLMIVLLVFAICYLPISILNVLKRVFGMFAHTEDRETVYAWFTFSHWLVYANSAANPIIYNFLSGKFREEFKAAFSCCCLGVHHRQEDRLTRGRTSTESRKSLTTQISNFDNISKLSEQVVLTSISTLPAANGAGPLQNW

Compound | Ki [nM]
Cc1ccc(-n2nccn2)c(C(=O)N2CC3CN(c4nc(C)cnc4C)CC3C2)c1 (stereo not shown) [Example 123, [5-(3,6-Dimethyl-pyrazin-2-yl)-hexahydro-pyrrolo[3,4-c]pyrrol-2-yl]-(5-methyl-2-[1,2,3]triazol-2-yl-phenyl)-methanone] | 44
CN(C)c1nc(N2CC3CN(C(=O)c4c(F)cccc4-c4ncccn4)CC3C2)cc(C(F)(F)F)n1 (stereo not shown) [Example 116, 4-{5-[(2-Fluoro-6-pyrimidin-2-ylphenyl)carbonyl]hexahydropyrrolo[3,4-c]pyrrol-2(1H)-yl}-N,N-dimethyl-6-(trifluoromethyl)pyrimidin-2-amine] | 22
Cc1cc(C)nc(N2CC3CN(C(=O)c4c(C)cccc4Cl)CC3C2)n1 (stereo not shown) [Example 230, 2-[(2-Chloro-6-methylphenyl)carbonyl]-5-(4,6-dimethylpyrimidin-2-yl)octahydropyrrolo[3,4-c]pyrrole] | 254
Cc1cc(C)nc(N2CC3CN(C(=O)c4ccc(F)cc4-c4ncccc4F)CC3C2)n1 (stereo not shown) [Example 346, (5-(4,6-Dimethylpyrimidin-2-yl)hexahydropyrrolo[3,4-c]pyrrol-2(1H)-yl)(4-fluoro-2-(3-fluoropyridin-2-yl)phenyl)methanone] | 25
Cc1cc(C)nc(N2CC3CN(C(=O)c4c(-n5nccn5)ccc5c4OCO5)CC3C2)n1 (stereo not shown) [Example 327, [5-(4,6-Dimethyl-pyrimidin-2-yl)-hexahydro-pyrrolo[3,4-c]pyrrol-2-yl]-(5-[1,2,3]triazol-2-yl-benzo[1,3]dioxol-4-yl)methanone] | 103
Cc1cc(C)nc(N2CC3CN(C(=O)c4cccnc4-c4ncccn4)CC3C2)n1 (stereo not shown) [Example 235, (5-(4,6-Dimethylpyrimidin-2-yl)hexahydropyrrolo[3,4-c]pyrrol-2(1H)-yl)(2-(pyrimidin-2-yl)pyridin-3-yl)methanone] | 560

Now from value to molecule:

Ki [nM] | Compound
1800 | COc1ccccc1S(=O)(=O)N1CC2CN(c3cnc4ccccc4n3)CC2C1 (stereo not shown) [Example 362, 2-(5-((2-Methoxyphenyl)sulfonyl)hexahydropyrrolo[3,4-c]pyrrol-2(1H)-yl)quinoxaline]
8 | Cc1cc(C)nc(N2CC3CN(C(=O)c4cccc5c4-c4ccccc4C5)CC3C2)n1 (stereo not shown) [Example 326, 2-(4,6-Dimethylpyrimidin-2-yl)-5-(9H-fluoren-4-ylcarbonyl)octahydropyrrolo[3,4-c]pyrrole]
10000 | COc1ccc(C(C)(C)C)cc1C(=O)N1CC2CN(c3nc(C)cc(C)n3)CC2C1 (stereo not shown) [Example 330, (5-tert-Butyl-2-methoxy-phenyl)-[5-(4,6-dimethyl-pyrimidin-2-yl)-hexahydro-pyrrolo[3,4-c]pyrrol-2-yl]-methanone]
950 | Cc1cccc(N2CC3CN(C(=O)c4ccccc4-c4ccccc4)CC3C2)n1 (stereo not shown) [Example 173, 2-(Biphenyl-2-ylcarbonyl)-5-(6-methylpyridin-2-yl)octahydropyrrolo[3,4-c]pyrrole]
